Data: patent US11878049B1, “Mitapivat therapy and modulators of cytochrome P450” (Agios Pharmaceuticals, Inc., priority 2019, dated 2024)
Structures can show the parent of a compound that is named as a salt.

What was measured:
Type in all cases: in vitro ADME
[1] = molecular target: multidrug resistance-associated protein (MRP)2 (Homo sapiens, UniProt Q92887); assay: Transporter inhibition
[2] = molecular target: uridine-5′-diphospho-glucuronosyltransferase (UGT) 1A3 (Homo sapiens, UniProt P35503); assay: UGT inhibition
uridine-5′-diphospho-glucuronosyltransferase (UGT) 1A3, sequence (P35503 29-534): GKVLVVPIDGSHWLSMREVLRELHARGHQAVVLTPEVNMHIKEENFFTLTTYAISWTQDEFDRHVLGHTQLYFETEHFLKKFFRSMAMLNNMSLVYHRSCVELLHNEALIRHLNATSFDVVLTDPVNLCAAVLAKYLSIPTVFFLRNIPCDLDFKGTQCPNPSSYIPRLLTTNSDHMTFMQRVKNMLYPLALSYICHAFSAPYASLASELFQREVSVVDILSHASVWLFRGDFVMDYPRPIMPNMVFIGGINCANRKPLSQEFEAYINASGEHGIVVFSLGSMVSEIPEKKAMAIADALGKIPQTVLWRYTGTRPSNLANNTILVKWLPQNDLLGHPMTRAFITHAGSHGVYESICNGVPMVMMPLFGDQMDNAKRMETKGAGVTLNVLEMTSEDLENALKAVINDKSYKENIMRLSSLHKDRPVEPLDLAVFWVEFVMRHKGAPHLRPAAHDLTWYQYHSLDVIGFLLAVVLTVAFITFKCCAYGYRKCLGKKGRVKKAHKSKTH

P-gp [3] = molecular target: T1, P-gp (Homo sapiens, UniProt P08183); assay: Transporter substrate assessment
T1 sequence (P08183 whole entry): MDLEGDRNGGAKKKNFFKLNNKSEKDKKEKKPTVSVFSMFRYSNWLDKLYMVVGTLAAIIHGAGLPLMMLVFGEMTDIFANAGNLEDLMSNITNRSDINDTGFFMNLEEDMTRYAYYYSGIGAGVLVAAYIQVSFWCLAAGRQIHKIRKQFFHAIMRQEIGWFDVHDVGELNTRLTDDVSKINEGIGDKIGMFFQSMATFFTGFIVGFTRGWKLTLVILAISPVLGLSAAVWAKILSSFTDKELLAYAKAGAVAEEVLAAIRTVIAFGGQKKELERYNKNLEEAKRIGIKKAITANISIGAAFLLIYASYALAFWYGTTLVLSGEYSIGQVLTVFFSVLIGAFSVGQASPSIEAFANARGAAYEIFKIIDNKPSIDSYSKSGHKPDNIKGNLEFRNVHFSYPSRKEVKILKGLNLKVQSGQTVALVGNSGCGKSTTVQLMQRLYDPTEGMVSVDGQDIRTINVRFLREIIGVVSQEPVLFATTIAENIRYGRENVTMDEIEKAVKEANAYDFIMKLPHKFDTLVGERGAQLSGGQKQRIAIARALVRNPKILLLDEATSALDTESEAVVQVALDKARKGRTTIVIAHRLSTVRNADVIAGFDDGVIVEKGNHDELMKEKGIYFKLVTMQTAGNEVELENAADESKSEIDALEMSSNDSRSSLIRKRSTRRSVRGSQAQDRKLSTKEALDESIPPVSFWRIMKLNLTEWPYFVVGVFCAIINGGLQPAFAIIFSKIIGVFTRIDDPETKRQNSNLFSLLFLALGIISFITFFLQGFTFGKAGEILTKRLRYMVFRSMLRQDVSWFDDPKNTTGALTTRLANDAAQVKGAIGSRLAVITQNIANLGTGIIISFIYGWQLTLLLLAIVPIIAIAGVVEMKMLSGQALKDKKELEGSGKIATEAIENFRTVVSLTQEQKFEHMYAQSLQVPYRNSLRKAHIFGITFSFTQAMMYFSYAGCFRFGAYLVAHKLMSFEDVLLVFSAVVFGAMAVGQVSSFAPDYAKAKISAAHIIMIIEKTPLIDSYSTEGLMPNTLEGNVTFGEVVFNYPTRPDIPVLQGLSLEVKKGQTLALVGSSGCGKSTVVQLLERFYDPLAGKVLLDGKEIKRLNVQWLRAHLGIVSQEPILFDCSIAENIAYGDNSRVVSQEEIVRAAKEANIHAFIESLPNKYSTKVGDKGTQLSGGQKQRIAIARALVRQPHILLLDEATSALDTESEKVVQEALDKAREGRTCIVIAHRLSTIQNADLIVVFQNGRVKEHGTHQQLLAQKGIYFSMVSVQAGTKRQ

human CYP3A4 = assay: CYP induction
P-gp [4] = molecular target: T1, P-gp; assay: Transporter inhibition
[5] = molecular target: uridine-5′-diphospho-glucuronosyltransferase (UGT) 1A4 (Homo sapiens, UniProt P22310); assay: UGT inhibition
uridine-5′-diphospho-glucuronosyltransferase (UGT) 1A4, sequence (P22310 29-534): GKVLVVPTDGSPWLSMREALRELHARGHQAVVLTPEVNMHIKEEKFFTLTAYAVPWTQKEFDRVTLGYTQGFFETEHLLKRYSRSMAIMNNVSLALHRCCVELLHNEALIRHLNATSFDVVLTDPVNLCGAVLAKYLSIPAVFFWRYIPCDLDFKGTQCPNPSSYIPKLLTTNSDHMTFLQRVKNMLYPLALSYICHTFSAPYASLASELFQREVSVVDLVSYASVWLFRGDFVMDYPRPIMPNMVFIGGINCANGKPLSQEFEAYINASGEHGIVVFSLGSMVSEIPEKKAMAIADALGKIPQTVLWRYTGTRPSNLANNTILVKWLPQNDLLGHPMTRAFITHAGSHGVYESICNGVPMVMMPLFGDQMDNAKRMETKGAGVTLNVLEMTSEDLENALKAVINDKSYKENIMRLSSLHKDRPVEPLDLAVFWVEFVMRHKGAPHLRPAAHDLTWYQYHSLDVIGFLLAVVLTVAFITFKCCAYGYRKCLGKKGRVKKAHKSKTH

[6] = molecular target: bile salts export pump (BSEP) (Homo sapiens, UniProt O95342); assay: Transporter inhibition
[7] = molecular target: T2, breast cancer resistance protein (BCRP) (Homo sapiens, UniProt Q9UNQ0); assay: Transporter substrate assessment
T2 sequence (Q9UNQ0 1-655): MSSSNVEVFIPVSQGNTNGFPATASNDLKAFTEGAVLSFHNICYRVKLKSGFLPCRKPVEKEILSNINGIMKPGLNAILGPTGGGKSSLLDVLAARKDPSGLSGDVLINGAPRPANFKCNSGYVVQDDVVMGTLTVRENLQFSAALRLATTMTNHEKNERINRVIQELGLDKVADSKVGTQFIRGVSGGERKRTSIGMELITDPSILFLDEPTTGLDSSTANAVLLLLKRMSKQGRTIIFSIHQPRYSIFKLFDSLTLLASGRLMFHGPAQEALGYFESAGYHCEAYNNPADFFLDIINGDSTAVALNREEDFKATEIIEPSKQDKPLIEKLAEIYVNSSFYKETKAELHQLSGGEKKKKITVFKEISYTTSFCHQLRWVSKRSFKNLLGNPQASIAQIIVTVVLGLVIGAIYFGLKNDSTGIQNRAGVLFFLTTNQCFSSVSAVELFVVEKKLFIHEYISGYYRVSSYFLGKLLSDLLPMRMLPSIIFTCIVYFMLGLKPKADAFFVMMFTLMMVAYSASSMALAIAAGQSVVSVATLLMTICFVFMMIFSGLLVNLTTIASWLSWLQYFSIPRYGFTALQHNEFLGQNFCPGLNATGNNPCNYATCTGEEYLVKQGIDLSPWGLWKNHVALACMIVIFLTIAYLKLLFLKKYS

[8] = molecular target: T2, breast cancer resistance protein (BCRP); assay: Transporter inhibition
[9] = molecular target: organic anion transporting polypeptide (OATP)1B1 (Homo sapiens, UniProt Q9Y6L6); assay: Transporter inhibition
organic anion transporting polypeptide (OATP)1B1, sequence (Q9Y6L6 whole entry): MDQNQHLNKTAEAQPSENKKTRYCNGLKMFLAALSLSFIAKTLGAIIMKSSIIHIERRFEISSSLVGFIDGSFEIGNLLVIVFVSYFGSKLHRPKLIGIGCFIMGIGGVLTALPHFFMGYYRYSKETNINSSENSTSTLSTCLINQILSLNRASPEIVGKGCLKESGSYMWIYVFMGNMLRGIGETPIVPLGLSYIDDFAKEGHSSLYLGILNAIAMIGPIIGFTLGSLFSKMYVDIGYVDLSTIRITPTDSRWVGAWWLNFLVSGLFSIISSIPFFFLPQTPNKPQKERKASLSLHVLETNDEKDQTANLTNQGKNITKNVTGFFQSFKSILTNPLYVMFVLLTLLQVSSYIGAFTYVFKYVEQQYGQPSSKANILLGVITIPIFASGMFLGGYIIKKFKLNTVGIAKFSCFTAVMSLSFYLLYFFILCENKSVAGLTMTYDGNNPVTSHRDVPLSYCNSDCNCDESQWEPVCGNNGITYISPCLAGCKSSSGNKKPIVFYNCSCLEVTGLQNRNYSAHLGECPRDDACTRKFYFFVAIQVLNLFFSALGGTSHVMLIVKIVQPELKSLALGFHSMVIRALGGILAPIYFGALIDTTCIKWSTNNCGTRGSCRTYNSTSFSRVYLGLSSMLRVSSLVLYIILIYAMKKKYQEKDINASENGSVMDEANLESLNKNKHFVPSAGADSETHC

human CYP2B6 = assay: CYP induction
CYP2C9 = CYP2C9 (Homo sapiens, UniProt P11712); assay: CYP enzyme inhibition
CYP2C19 [10] = molecular target: T3, CYP2C19 (Homo sapiens, UniProt P33261); assay: CYP enzyme inhibition
T3 sequence (P33261 whole entry): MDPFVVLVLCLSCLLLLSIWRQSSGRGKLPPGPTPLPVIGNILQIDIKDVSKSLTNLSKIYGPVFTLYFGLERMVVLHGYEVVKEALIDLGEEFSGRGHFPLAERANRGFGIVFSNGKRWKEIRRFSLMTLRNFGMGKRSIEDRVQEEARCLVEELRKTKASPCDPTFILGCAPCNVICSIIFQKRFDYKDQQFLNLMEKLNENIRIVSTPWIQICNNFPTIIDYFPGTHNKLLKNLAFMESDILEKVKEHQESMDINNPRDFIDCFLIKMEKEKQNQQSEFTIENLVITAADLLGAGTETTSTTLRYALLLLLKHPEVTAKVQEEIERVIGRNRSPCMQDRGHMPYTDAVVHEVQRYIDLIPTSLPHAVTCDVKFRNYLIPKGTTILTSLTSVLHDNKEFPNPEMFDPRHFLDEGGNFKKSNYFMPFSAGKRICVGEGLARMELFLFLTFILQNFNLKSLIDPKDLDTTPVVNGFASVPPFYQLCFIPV

CYP2D6 = CYP2D6 (Homo sapiens, UniProt P10635); assay: CYP enzyme inhibition
CYP2D6, sequence (P10635 whole entry): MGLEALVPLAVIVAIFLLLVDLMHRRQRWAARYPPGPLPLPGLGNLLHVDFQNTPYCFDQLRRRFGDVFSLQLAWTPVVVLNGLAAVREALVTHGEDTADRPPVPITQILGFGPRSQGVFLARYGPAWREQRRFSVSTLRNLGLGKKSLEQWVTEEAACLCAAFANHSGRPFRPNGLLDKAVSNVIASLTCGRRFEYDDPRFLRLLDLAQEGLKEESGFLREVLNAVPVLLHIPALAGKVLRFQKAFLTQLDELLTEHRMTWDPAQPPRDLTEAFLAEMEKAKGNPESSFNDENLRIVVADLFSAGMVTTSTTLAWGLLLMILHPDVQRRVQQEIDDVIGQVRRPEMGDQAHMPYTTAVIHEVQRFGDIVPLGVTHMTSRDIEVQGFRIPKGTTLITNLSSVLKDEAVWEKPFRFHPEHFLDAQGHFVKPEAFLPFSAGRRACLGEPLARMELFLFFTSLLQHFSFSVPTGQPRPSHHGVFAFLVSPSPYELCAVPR

CYP2C19 [11] = molecular target: T3, CYP2C19; assay: Metabolism-dependent CYP inhibition
CYP2C8 = CYP2C8 (Homo sapiens, UniProt P10632); assay: CYP enzyme inhibition
[12] = molecular target: uridine-5′-diphospho-glucuronosyltransferase (UGT) 1A9 (Homo sapiens, UniProt O60656); assay: UGT inhibition
uridine-5′-diphospho-glucuronosyltransferase (UGT) 1A9, sequence (O60656 26-530): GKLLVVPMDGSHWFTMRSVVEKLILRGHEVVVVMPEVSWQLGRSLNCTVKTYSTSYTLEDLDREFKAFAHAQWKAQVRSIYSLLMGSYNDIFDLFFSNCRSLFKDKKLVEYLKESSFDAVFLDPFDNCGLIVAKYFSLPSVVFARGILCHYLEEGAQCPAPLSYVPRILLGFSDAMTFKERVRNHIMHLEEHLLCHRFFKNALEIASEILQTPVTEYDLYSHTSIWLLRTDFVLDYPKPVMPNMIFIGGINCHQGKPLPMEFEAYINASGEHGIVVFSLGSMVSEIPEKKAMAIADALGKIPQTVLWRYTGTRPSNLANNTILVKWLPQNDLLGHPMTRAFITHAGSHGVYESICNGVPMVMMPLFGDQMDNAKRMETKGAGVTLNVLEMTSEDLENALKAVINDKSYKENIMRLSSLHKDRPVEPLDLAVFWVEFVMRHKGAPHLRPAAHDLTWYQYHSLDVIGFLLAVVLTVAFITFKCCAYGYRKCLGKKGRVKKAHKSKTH

OAT1 = OAT1 (Homo sapiens, UniProt Q4U2R8); assay: Transporter inhibition
OAT1, sequence (Q4U2R8 whole entry): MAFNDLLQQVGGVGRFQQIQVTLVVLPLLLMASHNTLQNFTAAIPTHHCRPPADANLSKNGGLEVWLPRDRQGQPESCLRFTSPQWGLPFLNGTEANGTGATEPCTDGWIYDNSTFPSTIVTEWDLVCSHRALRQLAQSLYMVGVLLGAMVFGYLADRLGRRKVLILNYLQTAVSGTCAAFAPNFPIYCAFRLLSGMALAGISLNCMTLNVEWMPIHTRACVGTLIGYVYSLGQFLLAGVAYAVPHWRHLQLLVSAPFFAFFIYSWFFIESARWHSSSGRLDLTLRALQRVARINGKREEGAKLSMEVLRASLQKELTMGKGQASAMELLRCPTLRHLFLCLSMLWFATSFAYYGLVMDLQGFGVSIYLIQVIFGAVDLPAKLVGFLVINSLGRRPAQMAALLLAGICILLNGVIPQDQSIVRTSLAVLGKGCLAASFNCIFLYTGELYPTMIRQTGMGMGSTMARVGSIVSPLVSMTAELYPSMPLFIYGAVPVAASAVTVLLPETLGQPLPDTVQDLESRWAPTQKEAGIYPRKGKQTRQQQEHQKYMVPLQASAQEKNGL

[13] = molecular target: organic anion transporter (OAT)3 (Homo sapiens, UniProt Q8TCC7); assay: Transporter inhibition
MRP3 = MRP3 (Homo sapiens, UniProt O15438); assay: Transporter inhibition
OATP1B3 = OATP1B3 (Homo sapiens, UniProt Q9NPD5); assay: Transporter inhibition
CYP3A4 = CYP3A4 (Homo sapiens, UniProt P08684); assay: Metabolism-dependent CYP inhibition
CYP3A4/5 = assay: CYP enzyme inhibition (testosterone 6β-hydroxylation)
[14] = molecular target: organic cation transporter (OCT)2 (Homo sapiens, UniProt O15244); assay: Transporter inhibition

- Inhibition of MRP2 [1]: does not appear to be an inhibitor
- Inhibition of UGT1A3 [2]: mild inhibitor
- Substrate for P-gp (P-gp [3]): substrate
- Induction of human CYP3A4 (human CYP3A4): potential inducer
- Inhibitor for P-gp (P-gp [4]): inhibitor
- Inhibition of UGT1A4 [5]: mild inhibitor
- Inhibition of OATP1B1 [9]: mild inhibitor
- Induction of human CYP2B6 (human CYP2B6): potential inducer
- Inhibition of CYP2C9 (CYP2C9): mild inhibitor
- Inhibition of CYP2C19 (CYP2C19 [10]): mild inhibitor
- Inhibition of CYP2D6 (CYP2D6): mild inhibitor
- Metabolism-dependent inhibition of CYP2C19 (evidence found), reversibility (CYP2C19 [11]): largely reversible
- Inhibition of CYP2C8 (CYP2C8): mild inhibitor
- Inhibition of UGT1A9 [12]: mild inhibitor
- Inhibition of OAT1 (OAT1): does not appear to be an inhibitor
- Inhibition of OAT3 [13]: mild inhibitor
- Inhibition of MRP3 (MRP3): does not appear to be an inhibitor
- Inhibition of OATP1B3 (OATP1B3): does not appear to be an inhibitor
- Metabolism-dependent inhibition of CYP3A4 (evidence found), reversibility (CYP3A4): largely irreversible
- Inhibition of CYP3A4/5 (CYP3A4/5): mild inhibitor
- Inhibition of OCT2 [14]: mild inhibitor
SMILES: O=C(c1ccc(NS(=O)(=O)c2cccc3cccnc23)cc1)N1CCN(CC2CC2)CC1 [Mitapivat sulfate]
- Inhibition of BSEP [6]: mild inhibitor
- Substrate for BCRP [7]: not for breast cancer resistance protein (BCRP)
- Inhibitor for BCRP [8]: not for breast cancer resistance protein (BCRP)
